Laboratory results published in US20260184712A1, “Heterocyclic Compounds as ENT Inhibitors and Compounds for Use in the Treatment of Cancers” (iTeos Belgium SA, priority 2022, published 2026).

Columns and labels:
Format in all cases: cell-based
[1] = tested on: stimulated primary human T cells; assay: T cell proliferation assay, Condition A (X-VIVO15); details: Condition A: X-VIVO15 medium, anti-CD3/anti-CD28 beads, ATP, 4 days, CFSE-lo T cells
Summary of the method: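 CFSE-labelled human CD3+ T cells (2×10^4/well) in serum-free X-VIVO15 were activated with anti-CD3/CD28 beads (1 bead:2 cells), pre-incubated 30 min with inhibitor, then cultured with 100 uM ATP for 4 days at 37 °C. Flow cytometry measured %CFSE^lo cells, and IC50/IC90 came from log-concentration curve fits.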

Human ENT2 = target: T1, Human ENT2 (Homo sapiens, UniProt Q14542); assay: Adenosine uptake assay, ENT2-mediated transport in MDCKII cells; details: MDCKIIENT2-LV cells, probe adenosine 0.5 μM, pre-incubation 30 min, incubation 10 min
T1 construct: expressed in transfected cells
T1 sequence (Q14542 1-456): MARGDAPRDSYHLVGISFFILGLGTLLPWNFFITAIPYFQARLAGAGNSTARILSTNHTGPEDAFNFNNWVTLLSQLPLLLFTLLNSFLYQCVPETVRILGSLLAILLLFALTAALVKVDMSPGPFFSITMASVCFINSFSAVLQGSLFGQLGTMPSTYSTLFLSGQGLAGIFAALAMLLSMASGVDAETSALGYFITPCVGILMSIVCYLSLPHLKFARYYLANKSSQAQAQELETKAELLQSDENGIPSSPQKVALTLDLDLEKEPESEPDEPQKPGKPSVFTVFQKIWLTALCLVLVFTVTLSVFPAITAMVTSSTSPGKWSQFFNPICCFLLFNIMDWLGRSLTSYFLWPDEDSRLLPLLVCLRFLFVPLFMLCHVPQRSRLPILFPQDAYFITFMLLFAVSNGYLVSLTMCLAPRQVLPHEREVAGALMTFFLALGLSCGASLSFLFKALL
Method: The goal of this study was to determine the potency and selectivity of ENT1 inhibitors by measuring ENT1 and ENT2-mediated transport using an in vitro cellular uptake assay.
Human ENT1 and ENT2 transporters were stably expressed in Madin-Darby Canine Kidney II (MDCKII) cells via transduction. Cell lines overexpressing the relevant ENT1 or ENT2 molecules were preincubated with a dose range of the relevant compound for 30 minutes before introduction of the specific substrate at the concentration indicated in the Table assay parameters below. The transporter assay was conducted for the time specified in the Table assay parameters before the specific uptake of the substrate into the cells was quantified. Specific uptake was determined by comparing the uptake from the cells treated with the relevant compounds and the uptake by cells not overexpressing the transporter in question.
Specific uptake for each concentration of the test sample was normalized to the DMSO control value to generate a relative accumulation value (or relative transporter activity). Data were plotted against the log molar concentration of the test reagent used. IC50 values were generated with Prism version 9.4.1 and the following function: log(inhibitor) vs. response—Variable slope (four parameters).

[2] = tested on: stimulated primary human T cells; assay: T cell proliferation assay, Condition B (X-VIVO15, 2% HSA and 0.1% AAG); details: Condition B: X-VIVO15 medium containing HSA and α1-Acid Glycoprotein, anti-CD3/anti-CD28 beads, ATP, 4 days, CFSE-lo T cells
Summary of the method: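 CFSE-labelled CD3+ T cells from healthy donors (2×10^4/well) in X-VIVO15 with 2% HSA and 0.1% AAG were stimulated with anti-CD3/CD28 beads. After 30 min pre-incubation with inhibitor, ATP was added and cells were cultured 4 days at 37° C. Flow cytometry gave % CFSE^lo cells, with IC50/IC90 and pICF from curve fits.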

SMILES	IC50 ([1]; Homo sapiens, T-cell, 96 h) [nM]	IC50 (Human ENT2) [nM]	IC50 ([2]; Homo sapiens, T-cell, 96 h) [nM]	IC50 [1] [nM]	IC50 [2] [nM]
COc1cc(C(=O)OCCCN2CCCN(CCCOC(=O)c3cc(OC)c(OC)c(OC)c3)CC2)cc(OC)c1OC [Dilazep, dilazep, reference compound]	1 to 20	> 1000	20 to 500		
O=[N+]([O-])c1ccc(CSc2ncnc3c2ncn3[C@@H]2O[C@H](CO)[C@@H](O)[C@H]2O)cc1 [NBMPR, reference compound]		> 1000		1 to 20	20 to 500
